Test results published in patent US12157730B2, “Heteroaryl derivative, method for producing same, and pharmaceutical composition comprising same as effective component” (VORONOI INC., priority 2019, dated 2024).

Molecular target: T1, Ba/F3 cell EGFR Exon20 ins NPH (Homo sapiens, UniProt P00533, INS773NPH)
T1 construct: expressed in transfected cells; host or cells: Ba/F3
Assay: Ba/F3 cell proliferation suppression, EGFR Exon20 ins NPH
Assay type: cell-based
Settings: GI50 class; Ba/F3 cell line with NPH inserted at Exon20 of EGFR; 72 hours
Method in brief: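 Seed 3000–5000 cells/well; after 24 h add compound (12 conc., 0.3 nM–50 um final); incubate 72 h; add CellTiter-Glo, 10 min room temperature; read luminescence; GI50 from % growth vs control, triplicate.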

Row | SMILES | Ba/F3 (NPH) Activity
1 | C=CC(=O)Nc1cc(Nc2cc(N3OCC[C@@H]3c3cccc(Cl)c3Cl)ncn2)c(OC)cc1N1CCN(C2CC2)CC1 [compound 518, N-(2-(4-cyclopropylpiperazine-1-yl)-5-((6-((R)-3-(2,3-dichlorophenyl)isoxazolidine-2-yl)pyrimidine-4-yl)amino)-4-methoxyphenyl) acrylamide] | A (GI50 < 50 nM)
2 | C=CC(=O)Nc1cc(Nc2cc(N3OCC[C@@H]3c3cc(F)cc(F)c3)ncn2)c(OC)cc1N1CCC(N2CCN(C(C)C)CC2)CC1 [Example 265, N-(5-((6-((R)-3-(3,5-difluorophenyl)isoxazolidine-2-yl)pyrimidine-4-yl)amino)-2-(4-(4-isopropylpiperazine-1-yl)piperidine-1-yl)-4-methoxyphenyl) acrylamide] | A (GI50 < 50 nM)
3 | C=CC(=O)Nc1cc(Nc2cc(N3OCC[C@@H]3c3ccc(F)cc3F)ncn2)c(OC)cc1N1CCC(N2CCN(C(C)C)CC2)CC1 [compound 428, N-(5-((6-((R)-3-(2,4-difluorophenyl)isoxazolidine-2-yl)pyrimidine-4-yl)amino)-2-(4-(4-isopropylpiperazine-1-yl)piperidine-1-yl)-4-methoxyphenyl) acrylamide] | A (GI50 < 50 nM)
4 | C=CC(=O)Nc1cc(Nc2cc(N3OCC[C@@H]3c3ccc(Cl)c(Cl)c3)ncn2)c(OC)cc1N1C[C@@H]2C[C@H]1CO2 [compound 612, N-(2-((1S,4S)-2-oxa-5-azabicyclo[2.2.1]heptane-5-yl)-5-((6-((R)-3-(3,4-dichlorophenyl)isoxazolidine-2-yl)pyrimidine-4-l)amino)-4-methoxyphenyl) acrylamide] | A (GI50 < 50 nM)
5 | C=CC(=O)Nc1cc(Nc2cc(N3OCC[C@@H]3c3ccc4ccccc4c3)ncn2)c(OC)cc1N1CCO[C@H](C)C1 [compound 663, N-(4-methoxy-2-((R)-2-methylmorpholino)-5-((6-((R)-3-(naphthalene-2-yl)isoxazolidine-2-yl)pyrimidine-4-yl)amino)phenyl)acrylamide] | B (50 nM ≤ GI50 < 500 nM)
6 | C=CC(=O)Nc1cc(Nc2cc(N3OCC[C@@H]3c3cccc(OC)c3)ncn2)c(OC)cc1N1CC[C@@H](N2CCOCC2)C1 [compound 777, N-(4-methoxy-5-((6-((R)-3-(3-methoxyphenyl)isoxazolidine-2-yl)pyrimidine-4-yl)amino)-2-((R)-3-morpholinopyrolidine-1-yl)phenyl)acrylamide] | B (50 nM ≤ GI50 < 500 nM)
7 | C=CC(=O)Nc1cc(Nc2cc(N3OCC[C@@H]3c3cccc(Cl)c3Cl)ncn2)c(OC)cc1N1CCC(N2CCN(C(C)=O)CC2)CC1 [compound 608, N-(2-(4-(4-acetylpiperazine-1-yl)piperidine-1-yl)-5-((6-((R)-3-(2,3-dichlorophenyl)isoxazolidine-2-yl)pyrimidine-4-yl)amino)-4-methoxyphenyl) acrylamide] | A (GI50 < 50 nM)
8 | C=CC(=O)Nc1cc(Nc2cc(N3OCC[C@@H]3c3cccc(Cl)c3)ncn2)c(OC)cc1N1CCC(N2C[C@H]3C[C@@H]2CO3)CC1 [compound 472, N-(2-(4-((1R,4R)-2-oxa-5-azabicyclo[2.2.1]heptane-5-yl)piperidine-1-yl)-5-((6-((R)-3-(3-chlorophenyl)isoxazolidine-2-yl)pyrimidine-4-yl)amino)-4-methoxyphenyl) acrylamide] | A (GI50 < 50 nM)
9 | C=CC(=O)Nc1cc(Nc2cc(N3OCC[C@@H]3c3ccc(Cl)c(Cl)c3)ncn2)c(OC)cc1N1CCN(CC2CC2)CC1 [compound 687, N-(2-(4-(cyclopropylmethyl)piperazine-1-yl)-5-((6-((R)-3-(3,4-dichlorophenyl)isoxazolidine-2-yl)pyrimidine-4-yl)amino)-4-methoxyphenyl) acrylamide] | A (GI50 < 50 nM)
10 | C=CC(=O)Nc1cc(Nc2cc(N3OCC[C@@H]3c3ccc(Cl)c(F)c3)ncn2)c(OC)cc1N1CCC(N2C[C@@H](C)O[C@@H](C)C2)CC1 [compound 709, N-(5-((6-((R)-3-(4-chloro-3-fluorophenyl)isoxazolidine-2-yl)pyrimidine-4-yl)amino)-2-(4-((2S,6R)-2,6-dimethylmorpholino)piperidine-1-yl)-4-methoxyphenyl) acrylamide] | A (GI50 < 50 nM)
11 | C=CC(=O)Nc1cc(Nc2cc(N3OCC[C@@H]3c3cccc(Cl)c3Cl)ncn2)c(OC)cc1N1CCN(C2CC2)[C@@H](C)C1 [compound 568, N-(2-((S)-4-cyclopropyl-3-methylpiperazine-1-yl)-5-((6-((R)-3-(2,3-dichlorophenyl)isoxazolidine-2-yl)pyrimidine-4-yl)amino)-4-methoxyphenyl) acrylamide] | A (GI50 < 50 nM)
12 | C=CC(=O)Nc1cc(Nc2cc(N3OCC[C@@H]3c3cccc(F)c3F)ncn2)c(OC)cc1N1CCN(C)[C@@H](C)C1 [compound 883, N-(5-((6-((R)-3-(2,3-difluorophenyl)isoxazolidine-2-yl)pyrimidine-4-yl)amino)-2-((S)-3,4-dimethylpiperazine-1-yl)-4-methoxyphenyl) acrylamide] | A (GI50 < 50 nM)
13 | C=CC(=O)Nc1cc(Nc2cc(N3OCC[C@@H]3c3ccc(F)c(Cl)c3)ncn2)c(OC)cc1N1CCC(N2CCN(C3CC3)CC2)CC1 [Example 59, N-(5-((6-((R)-3-(3-chloro-4-fluorophenyl)isoxazolidine-2-yl)pyrimidine-4-yl)amino)-2-(4-(4-cyclopropylpiperazine-1-yl)piperidine-1-yl)-4-methoxyphenyl) acrylamide;] | A (GI50 < 50 nM)
14 | C=CC(=O)Nc1cc(Nc2cc(N3OCC[C@@H]3Cc3cccc(Cl)c3Cl)ncn2)c(OC)cc1N1CCC(N2C[C@@H](C)O[C@@H](C)C2)CC1 [compound 1010, N-(5-((6-((S)-3-(2,3-dichlorobenzyl)isoxazolidine-2-yl)pyrimidine-4-yl)amino)-2-(4-((2S,6R)-2,6-dimethylmorpholino)piperidine-1-yl)-4-methoxyphenyl) acrylamide] | A (GI50 < 50 nM)
15 | C=CC(=O)Nc1cc(Nc2cc(N3OCC[C@@H]3c3cccc(C)c3F)ncn2)c(OC)cc1N1CC[C@@H](N(C)C)C1 [compound 860, N-(2-((R)-3-(dimethylamino)pyrolidine-1-yl)-5-((6-((R)-3-(2-fluoro-3-methylphenyl)isoxazolidine-2-yl)pyrimidine-4-yl)amino)-4-methoxyphenyl) acrylamide] | A (GI50 < 50 nM)
16 | C=CC(=O)Nc1cc(Nc2cc(N3OCC[C@@H]3c3ccc(F)c(F)c3)ncn2)c(OC)cc1N1CCC(N2C[C@H]3C[C@@H]2CO3)CC1 [compound 498, N-(2-(4-((1R,4R)-2-oxa-5-azabicyclo[2.2.1]heptane-5-yl)piperidine-1-yl)-5-((6-((R)-3-(3,4-difluorophenyl)isoxazolidine-2-yl)pyrimidine-4-yl)amino)-4-methoxyphenyl) acrylamide] | A (GI50 < 50 nM)
17 | C=CC(=O)Nc1cc(Nc2cc(N3OCC[C@@H]3c3cc(F)ccc3F)ncn2)c(OC)cc1N1CCC(N2C[C@@H](C)O[C@@H](C)C2)CC1 [compound 714, N-(5-((6-((R)-3-(2,5-difluorophenyl)isoxazolidine-2-yl)pyrimidine-4-yl)amino)-2-(4-((2S,6R)-2,6-dimethylmorpholino)piperidine-1-yl)-4-methoxyphenyl) acrylamide] | A (GI50 < 50 nM)
18 | C=CC(=O)Nc1cc(Nc2cc(N3OCC[C@@H]3c3cccc(Cl)c3)ncn2)c(OC)cc1N1CCC(N(C)C)CC1 [compound 361, N-(5-((6-((R)-3-(3-chlorophenyl)isoxazolidine-2-yl)pyrimidine-4-yl)amino)-2-(4-(dimethylamino)piperidine-1-yl)-4-methoxyphenyl) acrylamide] | A (GI50 < 50 nM)
19 | C=CC(=O)Nc1cc(Nc2cc(N3OCC[C@@H]3c3ccc(Cl)c(Cl)c3F)ncn2)c(OC)cc1N1CCC(N2CCN(C3COC3)CC2)CC1 [Example 84, N-(5-((6-((R)-3-(3,4-dichloro-2-fluorophenyl)isoxazolidine-2-yl)pyrimidine-4-yl)amino)-4-methoxy-2-(4-(4-(oxetane-3-yl)piperazine-1-yl)piperidine-1-yl)phenyl)acrylamide] | B (50 nM ≤ GI50 < 500 nM)
20 | C=CC(=O)Nc1cc(Nc2cc(N3OCC[C@@H]3c3ccc(Cl)c(F)c3)ncn2)c(OC)cc1N1CCC(N2CC[C@@H](N(C)C)C2)CC1 [compound 800, N-(5-((6-((R)-3-(4-chloro-3-fluorophenyl)isoxazolidine-2-yl)pyrimidine-4-yl)amino)-2-(4-((R)-3-(dimethylamino)pyrolidine-1-yl)piperidine-1-yl)-4-methoxyphenyl) acrylamide] | A (GI50 < 50 nM)
21 | C=CC(=O)Nc1cc(Nc2cc(N3OCC[C@@H]3c3ccc(F)c(Cl)c3)ncn2)c(OC)cc1N1C[C@@H]2CCN(C)[C@@H]2C1 [compound 316, N-(5-((6-((R)-3-(3-chloro-4-fluorophenyl)isoxazolidine-2-yl)pyrimidine-4-yl)amino)-4-methoxy-2-((3aS,6aS)-1-methylhexahydropyrrolo [3,4-b]pyrrole-5(1H)-yl)phenyl)acrylamide] | A (GI50 < 50 nM)
22 | C=CC(=O)Nc1cc(Nc2cc(N3OCC[C@@H]3c3ccc(Cl)c(Cl)c3F)ncn2)c(OC)cc1N1CC[C@@H](N(C)C)C1 [Example 291, N-(5-((6-((R)-3-(3,4-dichloro-2-fluorophenyl)isoxazolidine-2-yl)pyrimidine-4-yl)amino)-2-((R)-3-(dimethylamino)pyrolidine-1-yl)-4-methoxyphenyl) acrylamide] | B (50 nM ≤ GI50 < 500 nM)
23 | C=CC(=O)Nc1cc(Nc2cc(N3OCC[C@@H]3c3cccc(C)c3F)ncn2)c(OC)cc1N1CCC(N2CCN(C3CC3)CC2)CC1 [Example 140, N-(2-(4-(4-cyclopropylpiperazine-1-yl)piperidine-1-yl)-5-((6-((R)-3-(2-fluoro-3-methylphenyl)isoxazolidine-2-yl)pyrimidine-4-yl)amino)-4-methoxyphenyl) acrylamide] | A (GI50 < 50 nM)
